Experimental data taken from US7122337B2, “Method for determining calciotropic activity of a preparation of Padina pavonic algae” (Texinfine SA, priority 2001, dated 2006).

How the values were obtained:
human cell line G292 = assay: Fixing of calcium by the osteoblast cell line G292; type: cell-based; parameters: Fixed calcium, Average: unit not given here; conditions: for Fixing the calcium (fixed calcium): G292, Example I, controls = 1,000
Description: (§1) More precisely, the process according to the invention consists of preparing a suspension of a human or animal osseous cell line, by adjusting the cellular density determined by turbidimetry or by calculating from a reference value, leaving to incubate for one to three days at 37° C. in the presence of carbon dioxide and of a complete culture medium (CCM), adding to some wells an agent inhibiting the fixing of calcium or a calciotropic hormone, and some extract to be titrated, eliminating the supernatants from the culture, rinsing out the wells with a rinsing medium without calcium or magnesium (P.B.S. for example) in such a way as to eliminate the non-fixed calcium from the culture medium, eliminating the supernatant fractions, and adjusting the volume of the dispersion with a fixed volume of mineral acid such as hydrochloric acid, sulphuric acid, phosphoric acid or perchloric acid or with any other product capable of destroying the extracellular matrix built up by the cells being cultured. […] NT-690.005.
(§2) The material to be tested is dosed on a cell culture. An analysis is carried out of the calcium fixed by the osseous cells. To do this, the calcium fixed by an osteoblastic cell line is dosed. In a non-limiting way, UMR 106 and G292, in the presence or not of deleterious agents such as the Inh-Ca and the IL-1 may be cited. The preparation to be analysed will also itself be tested, on the same cell line in the presence or not of agents such as Inh-Ca and IL-1.
In these same conditions, calcium fixed by the same cell line in the presence of estradiol is dosed and a calibration scale is produced, expressed in weight of estradiol This calibration scale ranges from 10^−3 to 10^−10 mol of estradiol or more frequently between 10^−7 and 10^−9 mol of estradiol. In this way, it is possible to establish a correlation between the activity of the extract of Padina and an active quantity of estradiol. We should stress that this comparison is made between the activity of estradiol directly on the cell culture with the active extract of Padina in the presence of deleterious agents such as an Inh-Ca or IL-1. So it is not a true weight comparison and it is proposed that the result should be expressed in Units of Activity (UA). A unit of activity is defined as the quantity of extract capable of increasing by 50% the quantity of calcium fixed by 400,000 cells cultivated for 48 hours in the presence of 1 ng of interleukin 1 per 1 ml well. The IL-1 can be replaced by another agent inhibiting the fixing of calcium at an equi-active dose.
The extracts of Padina have been described, in particular in the European patent application EP 0.655.250. The algae is then depleted after drying, by a hydrocarbonated solvent such as cyclohexane or acetone, the vegetable matter is separated, and the extracted product is filtered then evaporated until dry. A quantity of dry extract weighed precisely is then dissolved in ethanol. Determining its activity is the object of the present invention. In concrete terms, the process according to the invention consists of preparing a suspension of culture of the human cell line G292 (ECAC no. 901-110522), adjusting the cell density to 400,000 cells per ml of complete culture medium (CCM), supplemented by 10% of fetal calf serum. The cell suspension is distributed at the rate of 1 ml per well on plates of 24 wells. It is left to incubate overnight in an atmosphere of CO2 at 37°. The supernatants are separated then dilution is carried out by a new addition of CCM. An aliquot fraction of IL-1 is prepared and 5 μl of interleukin IL1 solution is added, namely 1 ng per well in the wells for the cells which receive only one inhibiting treatment per IL-1.
(§3) For each trial of solution to be titrated, 5 μl of solution of Padina extract is added. It is then left to incubate for the length of time necessary to carry out the trial, normally between 24 and 72 hours, and preferably 48 hours. […]

Osteoblasts = assay: Fixing of calcium by osteoblasts (Example I); type: cell-based
Description: as §1
The extracts or powders of the algae Padina pavonica have the effect of stimulating biological activity (synthesis of proteins and glycoaminoglycanes) but also act to restore physiological functions such as the fixing of calcium by osteogenic cells. For this, the fixed calcium is dosed with a fixed cell line, such as for example the cell line UMR 106 or the line G 292, in the presence or not of deleterious agents such as inhibitors of the calcic canals and pro-inflammatory agents such as IL 1. Normal osteoblasts give good results, but their availability presents a problem. The preparation to be analysed is tested in parallel on the same cell line, in the presence or not of these same deleterious agents. The quantity of fixed calcium in relation to that obtained with the calciotropic agent and with those obtained in the presence of agents inhibiting the fixing of calcium are compared.
as §2, §3

[1] = calcic inhibitor alone, 10 μg, control 1.194
[2] = agent in the presence of IL-1, controls = 1,000

| Structure (SMILES) | Fixed calcium, Average (human cell line G292; [1]) | Fixing the calcium (fixed calcium) (Osteoblasts; agent alone, controls = 1,000) | Fixing the calcium (fixed calcium) (Osteoblasts; [2]) | Fixed calcium, Average (human cell line G292; Estradiol 10^−7 alone, control 1.194) | Fixed calcium, Average (human cell line G292; Estradiol 10^−8 alone, control 1.194) | Fixed calcium, Average (human cell line G292; Estradiol 10^−9 alone, control 1.194) | Fixed calcium, Average (human cell line G292; Estradiol + Cinchonine, control 1.194, Cinchonine 0.059) | Fixed calcium, Average (human cell line G292; Estradiol + IL-1, control 1.194, IL-1 0.315) | Fixed calcium, Average (human cell line G292; Estradiol + Verapamil, control 1.194, Verap 0.383) | Fixing the calcium (fixed calcium) (human cell line G292; agent alone) | Fixing the calcium (fixed calcium) (human cell line G292; agent in the presence of IL-1) |
| --- | --- | --- | --- | --- | --- | --- | --- | --- | --- | --- | --- |
| C=C[C@H]1C[N@@]2CC[C@H]1C[C@@H]2[C@@H](O)c1ccnc2ccccc12 [Cinchonine] | 0.059 |  |  |  |  |  |  |  |  |  |  |
| C[C@]12CC[C@@H]3c4ccc(O)cc4CC[C@H]3[C@@H]1CC[C@@H]2O [Est, Estradiol] |  | 1,843 | 0,200 | 1.151 | 1.115 | 0.706 | 0.357 | 0.357 | 0.373 | 2,648 | 0,070 |
| COc1ccc(CCN(C)CCCC(C#N)(c2ccc(OC)c(OC)c2)C(C)C)cc1OC (stereo not shown) [Verap, Verapamil] | 0.383 |  |  |  |  |  |  |  |  |  |  |
| C=C1CC[C@H](O)C/C1=C/C=C1\CCC[C@]2(C)[C@@H]([C@H](C)CCCC(C)C)CC[C@@H]12 [D3, Vitamin D3] |  | 1,215 | 0,125 |  |  |  |  |  |  | 1,540 | 0,070 |
